Assay results as given in PubChem BioAssay AID1919015 (Molecular Pharmacology Branch, DTP, NCI, 2023).

Test system: OVCAR-5 complex spheroids with HUVEC/MSC, viability, % test/control
Experiment: Anticancer human tumor OVCAR-5 cell line growth inhibition [AhR];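 also: spheroids exposed to compounds for 7 days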;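 as to viability, T/C: 100% = DMSO vehicle control wells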
Details: for IC50: curve of first compound; for viability, T/C: stronger effect = lower value
Procedure, shortened: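 Agents were dosed in half-log steps down from roughly clinical Cmax, or from 10 microM where Cmax was unknown, alone and with AhR antagonists. Read-out: percent test/control growth of tumor spheroids containing HUVEC and MSC stromal cells.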

[1] = second compound 0.1 µM, first compound 0.0316 µM
[2] = second compound 0.1 µM, first compound 0.1 µM
[3] = second compound 0.1 µM, first compound 0.316 µM
[4] = second compound 0.1 µM, first compound 1 µM
[5] = second compound 0.1 µM, first compound 3.16 µM
[6] = second compound 0.1 µM, first compound 10 µM
[7] = second compound 0.316 µM, first compound 0.0316 µM
[8] = second compound 0.316 µM, first compound 0.1 µM
[9] = second compound 0.316 µM, first compound 0.316 µM
[10] = second compound 0.316 µM, first compound 1 µM
[11] = second compound 0.316 µM, first compound 3.16 µM
[12] = second compound 0.316 µM, first compound 10 µM
[13] = second compound 1 µM, first compound 0.0316 µM
[14] = second compound 1 µM, first compound 0.1 µM
[15] = second compound 1 µM, first compound 0.316 µM
[16] = second compound 1 µM, first compound 1 µM
[17] = second compound 1 µM, first compound 3.16 µM
[18] = second compound 1 µM, first compound 10 µM
[19] = second compound 3.16 µM, first compound 0.0316 µM
[20] = second compound 3.16 µM, first compound 0.1 µM
[21] = second compound 3.16 µM, first compound 0.316 µM
[22] = second compound 3.16 µM, first compound 1 µM
[23] = second compound 3.16 µM, first compound 3.16 µM
[24] = second compound 3.16 µM, first compound 10 µM
[25] = second compound 10 µM, first compound 0.0316 µM
[26] = second compound 10 µM, first compound 0.1 µM
[27] = second compound 10 µM, first compound 0.316 µM
[28] = second compound 10 µM, first compound 1 µM
[29] = second compound 10 µM, first compound 3.16 µM
[30] = second compound 10 µM, first compound 10 µM

## COc1cc(Nc2ncc3c(n2)-c2ccc(Cl)cc2C(c2c(F)cccc2OC)=NC3)ccc1C(=O)O + Cc1cncc(-c2nc(NCCc3c[nH]c4ccccc34)c3ncn(C(C)C)c3n2)c1
Second compound 0.1 µM
  IC50: 2650 nM
Second compound 0.316 µM
  IC50: 3040 nM
Second compound 1 µM
  IC50: 2740 nM
Second compound 3.16 µM
  IC50: 875 nM
Second compound 10 µM
  IC50: < 31.6 nM
[1]
  viability, T/C: 88.1%
[2]
  viability, T/C: 83.6%
[3]
  viability, T/C: 63.6%
[4]
  viability, T/C: 58%
[5]
  viability, T/C: 49.2%
[6]
  viability, T/C: 45.6%
[7]
  viability, T/C: 87.3%
[8]
  viability, T/C: 80.9%
[9]
  viability, T/C: 63.3%
[10]
  viability, T/C: 59.9%
[11]
  viability, T/C: 50.2%
[12]
  viability, T/C: 42.5%
[13]
  viability, T/C: 85.5%
[14]
  viability, T/C: 79%
[15]
  viability, T/C: 60.5%
[16]
  viability, T/C: 59.5%
[17]
  viability, T/C: 48.3%
[18]
  viability, T/C: 44.1%
[19]
  viability, T/C: 69.8%
[20]
  viability, T/C: 68.6%
[21]
  viability, T/C: 56.7%
[22]
  viability, T/C: 49.8%
[23]
  viability, T/C: 46.9%
[24]
  viability, T/C: 44%
[25]
  viability, T/C: 9.88%
[26]
  viability, T/C: 9.9%
[27]
  viability, T/C: 8.88%
[28]
  viability, T/C: 9.21%
[29]
  viability, T/C: 8.92%
[30]
  viability, T/C: 12.2%

## Cn1ncnc1C1c2n[nH]c(=O)c3cc(F)cc(c23)NC1c1ccc(F)cc1 (stereo not given) + Cc1cncc(-c2nc(NCCc3c[nH]c4ccccc34)c3ncn(C(C)C)c3n2)c1
Second compound 0.1 µM
  IC50: > 100 nM
Second compound 0.316 µM
  IC50: > 100 nM
Second compound 1 µM
  IC50: > 100 nM
Second compound 3.16 µM
  IC50: > 100 nM
Second compound 10 µM
  IC50: < 0.316 nM
Second compound 0.1 µM, first compound 0.000316 µM
  viability, T/C: 99.4%
Second compound 0.1 µM, first compound 0.001 µM
  viability, T/C: 102%
Second compound 0.1 µM, first compound 0.00316 µM
  viability, T/C: 103%
Second compound 0.1 µM, first compound 0.01 µM
  viability, T/C: 104%
[1]
  viability, T/C: 101%
[2]
  viability, T/C: 99.2%
Second compound 0.316 µM, first compound 0.000316 µM
  viability, T/C: 101%
Second compound 0.316 µM, first compound 0.001 µM
  viability, T/C: 104%
Second compound 0.316 µM, first compound 0.00316 µM
  viability, T/C: 100%
Second compound 0.316 µM, first compound 0.01 µM
  viability, T/C: 99.2%
[7]
  viability, T/C: 99.4%
[8]
  viability, T/C: 95.2%
Second compound 1 µM, first compound 0.000316 µM
  viability, T/C: 98.1%
Second compound 1 µM, first compound 0.001 µM
  viability, T/C: 97.9%
Second compound 1 µM, first compound 0.00316 µM
  viability, T/C: 95.8%
Second compound 1 µM, first compound 0.01 µM
  viability, T/C: 96.4%
[13]
  viability, T/C: 94.6%
[14]
  viability, T/C: 93.6%
Second compound 3.16 µM, first compound 0.000316 µM
  viability, T/C: 85%
Second compound 3.16 µM, first compound 0.001 µM
  viability, T/C: 87.3%
Second compound 3.16 µM, first compound 0.00316 µM
  viability, T/C: 86.3%
Second compound 3.16 µM, first compound 0.01 µM
  viability, T/C: 87.7%
[19]
  viability, T/C: 83.4%
[20]
  viability, T/C: 89.5%
Second compound 10 µM, first compound 0.000316 µM
  viability, T/C: 26.6%
Second compound 10 µM, first compound 0.001 µM
  viability, T/C: 28.5%
Second compound 10 µM, first compound 0.00316 µM
  viability, T/C: 30.9%
Second compound 10 µM, first compound 0.01 µM
  viability, T/C: 27.2%
[25]
  viability, T/C: 23%
[26]
  viability, T/C: 30.7%

## NS(=O)(=O)OCC1CC(n2ccc3c(NC4CCc5ccccc54)ncnc32)CC1O (stereo not given) + Cc1cncc(-c2nc(NCCc3c[nH]c4ccccc34)c3ncn(C(C)C)c3n2)c1
Second compound 0.1 µM
  IC50: 152 nM
Second compound 0.316 µM
  IC50: 114 nM
Second compound 1 µM
  IC50: 91.8 nM
Second compound 3.16 µM
  IC50: 98 nM
Second compound 10 µM
  IC50: < 31.6 nM
[1]
  viability, T/C: 86.4%
[2]
  viability, T/C: 57.5%
[3]
  viability, T/C: 37.2%
[4]
  viability, T/C: 17.6%
[5]
  viability, T/C: 13.1%
[6]
  viability, T/C: 12.2%
[7]
  viability, T/C: 78%
[8]
  viability, T/C: 51.5%
[9]
  viability, T/C: 33%
[10]
  viability, T/C: 16.5%
[11]
  viability, T/C: 13.6%
[12]
  viability, T/C: 12.3%
[13]
  viability, T/C: 69.7%
[14]
  viability, T/C: 47.4%
[15]
  viability, T/C: 31.6%
[16]
  viability, T/C: 16.6%
[17]
  viability, T/C: 11.3%
[18]
  viability, T/C: 10.7%
[19]
  viability, T/C: 64%
[20]
  viability, T/C: 50.2%
[21]
  viability, T/C: 22.7%
[22]
  viability, T/C: 10.7%
[23]
  viability, T/C: 6.17%
[24]
  viability, T/C: 4.99%
[25]
  viability, T/C: 3.84%
[26]
  viability, T/C: 3.41%
[27]
  viability, T/C: 2.74%
[28]
  viability, T/C: 2.03%
[29]
  viability, T/C: 0.83%
[30]
  viability, T/C: 0.48%
